Key:
[1] = Metabolic stability in human liver microsomes assessed as hepatic blood flow preincubated for 10 mins and measured after 60 mins by LC-MS/MS analysis; format: ADME, Microsome; conditions: read-out: QH
[2] = Cytotoxicity against human THP-1 cells incubated for 72 hrs by DAPI staining based analysis; format: toxicity, cell-based
[3] = Selectivity index, ratio of CC50 for cytotoxicity against human HepG2 cells to IC50 for antileishmanial activity against Leishmania donovani MHOM/IN/1983/AG83 axenic amastigotes; format: toxicity, cell-based; conditions: read-out: Ratio CC50/IC50
[4] = Metabolic stability in mouse liver microsomes assessed as half-life preincubated for 10 mins and measured after 60 mins by LC-MS/MS analysis; format: ADME, Microsome
[5] = Metabolic stability in human liver microsomes assessed as half-life preincubated for 10 mins and measured after 60 mins by LC-MS/MS analysis; format: ADME, Microsome
[6] = Stability in mouse plasma assessed as compound remaining measured after 2 hrs by LC-MS/MS analysis; format: ADME, cell-free; conditions: read-out: Stability
[7] = Cytotoxicity against human HepG2 cells assessed as inhibition of cell growth at 80 uM incubated for 48 hrs by PI staining based flow cytometric analysis relative to control; format: toxicity
[8] = Metabolic stability in mouse liver microsomes assessed as hepatic blood flow preincubated for 10 mins and measured after 60 mins by LC-MS/MS analysis; format: ADME, Microsome; conditions: read-out: QH
[9] = Lipophilicity, logD of compound in 1-octanol and phosphate buffer at pH 7.4 by HPLC-UV analysis; format: physicochemical; conditions: 1-octanol/phosphate buffer
[10] = Cytotoxicity against human HepG2 cells incubated for 48 hrs by PI staining based flow cytometric analysis; format: toxicity, cell-based
[11] = Stability in human plasma assessed as compound remaining measured after 2 hrs by LC-MS/MS analysis; format: ADME, cell-free; conditions: read-out: Stability
Leishmania donovani [12] = experiment: Antileishmanial activity against Leishmania donovani MHOM/IN/1983/AG83 axenic amastigotes assessed as inhibition of growth incubated for 48 hrs by flow cytometric analysis; format: functional, organism-based; conditions: MHOM/IN/1983/AG83, 48 h
Leishmania donovani [13] = experiment: Antileishmanial activity against Leishmania donovani MHOM/IN/1983/AG83 axenic amastigotes assessed as inhibition of growth at 20 uM incubated for 48 hrs by flow cytometric analysis relative to control; format: functional

Question: With `COc1cc2c(N3CCCCC3)nc(NC(=O)c3ccc(F)cc3)nc2cc1OC1CCCC1` as the compound, how does the hepatic extraction ratio at 1 h [1] read?
Answer: The hepatic extraction ratio at 1 h was 0.575.

Question: What about the CC50 at 72 h [2] of the same compound?
Answer: Its CC50 at 72 h is 89.5 µM.

Question: And the selectivity ratio [3]?
Answer: The selectivity ratio was > 15.

Question: And the half-life [4]?
Answer: Its half-life is 19.4 min.

Question: And the half-life [5]?
Answer: Its half-life is 23.8 min.

Question: What about the remaining at 2 h [6] of the same compound?
Answer: Its remaining at 2 h is 44.3%.

Question: What about the inhibition at 48 h, 80 µM [7] of the same compound?
Answer: The inhibition at 48 h, 80 µM was 10.8%.

Question: What about the hepatic extraction ratio at 1 h [8] of the same compound?
Answer: The hepatic extraction ratio at 1 h was 0.494.

Question: What about the logD [9] of the same compound?
Answer: The logD was 4.64.

Question: What about the CC50 at 48 h [10] of the same compound?
Answer: The CC50 at 48 h was > 80 µM.

Question: What about the remaining at 2 h [11] of the same compound?
Answer: Its remaining at 2 h is 61%.

Question: What about the IC50 (Leishmania donovani [12]) of the same compound?
Answer: Its IC50 is 5.43 µM.

Question: Which CC50 at 72 h [2] does the source give for `COc1cc2c(N3CCCCC3)nc(NCc3cccc(F)c3)nc2cc1OC1CCCC1` here?
Answer: Its CC50 at 72 h is > 3 µM.

Question: What about the inhibition at 20 µM (Leishmania donovani [13]) of the same compound?
Answer: The inhibition at 20 µM was ~40.8%.

Question: What does the source list for `COc1cc2c(N3CCCCC3)nc(Nc3ccc(C(F)(F)F)cc3)nc2cc1OC1CCCC1`?
Answer: CC50 at 72 h [2]: > 50 µM; inhibition at 20 µM (Leishmania donovani [13]): ~35.3%

Question: For `COc1cc2c(N3CCCCC3)nc(NCc3cccc(Cl)c3)nc2cc1OC1CCCC1`, which CC50 at 72 h [2] is on record?
Answer: Its CC50 at 72 h is 43.8 µM.

Question: What about the inhibition at 20 µM (Leishmania donovani [13]) of the same compound?
Answer: The inhibition at 20 µM was ~12%.
